Results taken from EPA's ToxValDB 9.5 (doi:10.2903/j.efsa.2011.1969).
Converted amounts (≈) assume the structure as drawn.

How the values were obtained:
[1] = test system: Bibionidae; conditions: chronic/long-term; duration: 27 days
[2] = test system: Apis mellifera; conditions: acute; duration: 48 hours; oral; unspecified; mortality
[3] = test system: Rattus norvegicus
[4] = test system: Coturnix japonica; conditions: reproduction developmental
[5] = test system: Tagia sp.; conditions: acute; duration: 14 days; mortality
[6] = test system: Oncorhynchus mykiss
[7] = test system: Folsomia candida; conditions: chronic/long-term; duration: 28 days
[8] = test system: Anas platyrhynchos; conditions: short-term; oral; feed; mortality
[9] = test system: Colinus virginianus; conditions: acute; oral; mortality
[10] = test system: Daphnia magna; conditions: chronic/long-term; duration: 21 days; reproduction
[11] = test system: Aphidius rhopalosiphi; experiment: LR50; higher = less toxic; conditions: not reported; mortality
[12] = test system: Typhlodromus pyri; experiment: LR50; higher = less toxic; conditions: not reported; mortality

Compound: CCNc1nc(Cl)nc(NC(C)(C)C)n1 [Terbutylazine]
- NOEC [1]: 0.5 mg/L
- LD50 [2]: > 22.6 µg/piece
- LD50 ([3]; acute, oral, mortality): < 1590 mg/kg
- NOAEL ([3]; chronic): 3.3 mg/kg-day
- NOEL [4]: 13.8 mg/kg-day
- LC50 [5]: > 283 mg/kg
- LC50 ([6]; acute, duration: 96 hours, mortality): 2.2 mg/L (≈ 9.58 µM)
- NOEC ([6]; chronic/long-term, duration: 90 days, time to swim up): 0.09 mg/L
- NOEC [7]: 42.2 mg/kg
- LC50 [8]: > 395 mg/kg-day
- LD50 [9]: 1240 mg/kg-day
- NOEC [10]: 0.019 mg/L
- LR50 [11]: > 750 g/ha
- LR50 [12]: > 750 g/ha
